Laboratory results: ChEMBL document CHEMBL3797052 (Eur J Med Chem, 2016)

System: K562
Assay: Antiproliferative activity against human K562 cells assessed as cell growth at 10^-6 M after 48 hrs by sulforhodamine B assay
Format: functional
Conditions: K562, 48 h, read-out: Activity
In the case of `CNC(=O)c1cc(Oc2ccc3nc(NC(=O)c4cc(C(F)(F)F)cc(C(F)(F)F)c4)sc3c2)ccn1`, the growth at 1 µM is reported as 102%.

System: T47D
Assay: Antiproliferative activity against human T47D cells assessed as cell growth at 10^-6 M after 48 hrs by sulforhodamine B assay
Format: functional
Conditions: read-out: Activity
For `CNC(=O)c1cc(Oc2ccc3nc(NC(=O)c4cc(C(F)(F)F)cc(C(F)(F)F)c4)sc3c2)ccn1`, the growth at 1 µM was 100%.

System: SK-MEL-28
Assay: Antiproliferative activity against human SK-MEL-28 cells assessed as cell growth at 10^-7 M after 48 hrs by sulforhodamine B assay
Format: functional
Conditions: SK-MEL-28, 48 h, read-out: Activity
With `CNC(=O)c1cc(Oc2ccc3nc(NC(=O)c4cc(C(F)(F)F)cc(C(F)(F)F)c4)sc3c2)ccn1` the growth at 0.1 µM was 96%.

System: not listed separately
Assay: Antiproliferative activity against human LOXIMVI cells assessed as growth inhibition after 48 hrs by sulforhodamine B assay
Format: functional
Conditions: LOX IMVI
In the case of `CNC(=O)c1cc(Oc2ccc3nc(NC(=O)c4cc(C(F)(F)F)cc(C(F)(F)F)c4)sc3c2)ccn1`, the GI50 is reported as 3.39 µM and the TGI is reported as 15.1 µM.

Same assay, conditions: LOX IMVI, read-out: LC50 (the source's name)
Compound `CNC(=O)c1cc(Oc2ccc3nc(NC(=O)c4cc(C(F)(F)F)cc(C(F)(F)F)c4)sc3c2)ccn1` has a CC50 of 97.5 µM.

System: not listed separately
Assay: Antiproliferative activity against human UO31 cells assessed as cell growth at 10^-4 M after 48 hrs by sulforhodamine B assay
Format: functional
Conditions: UO-31, 48 h, read-out: Activity
Compound `CNC(=O)c1cc(Oc2ccc3nc(NC(=O)c4cc(C(F)(F)F)cc(C(F)(F)F)c4)sc3c2)ccn1` has a growth at 100 µM of -51%.

System: not listed separately
Assay: Antiproliferative activity against human HCT15 cells assessed as cell growth at 10^-7 M after 48 hrs by sulforhodamine B assay
Format: functional
Conditions: HCT-15, 48 h, read-out: Activity
`CNC(=O)c1cc(Oc2ccc3nc(NC(=O)c4cc(C(F)(F)F)cc(C(F)(F)F)c4)sc3c2)ccn1` gave a growth at 0.1 µM of 96%.

System: not listed separately
Assay: Antiproliferative activity against human HL-60(TB) cells assessed as cell growth at 10^-7 M after 48 hrs by sulforhodamine B assay
Format: functional
Conditions: HL-60, 48 h, read-out: Activity
For `CNC(=O)c1cc(Oc2ccc3nc(NC(=O)c4cc(C(F)(F)F)cc(C(F)(F)F)c4)sc3c2)ccn1`, the growth at 0.1 µM was 97%.

System: not listed separately
Assay: Antiproliferative activity against human RXF393 cells assessed as cell growth at 10^-8 M after 48 hrs by sulforhodamine B assay
Format: functional
Conditions: RXF 393, 48 h, read-out: Activity
`CNC(=O)c1cc(Oc2ccc3nc(NC(=O)c4cc(C(F)(F)F)cc(C(F)(F)F)c4)sc3c2)ccn1` showed a growth at 0.01 µM of 95%.

System: NCI-H322M
Assay: Antiproliferative activity against human NCI-H322M cells assessed as cell growth at 10^-6 M after 48 hrs by sulforhodamine B assay
Format: functional
Conditions: read-out: Activity
With `CNC(=O)c1cc(Oc2ccc3nc(NC(=O)c4cc(C(F)(F)F)cc(C(F)(F)F)c4)sc3c2)ccn1` the growth at 1 µM was 52%.

System: not listed separately
Assay: Antiproliferative activity against human BT549 cells assessed as growth inhibition after 48 hrs by sulforhodamine B assay
Format: functional
Conditions: BT-549, 48 h
With `CNC(=O)c1cc(Oc2ccc3nc(NC(=O)c4cc(C(F)(F)F)cc(C(F)(F)F)c4)sc3c2)ccn1` the GI50 was 3.05 µM and the TGI was 12.4 µM.

Same assay, conditions: BT-549, 48 h, read-out: LC50 (the source's name)
In the case of `CNC(=O)c1cc(Oc2ccc3nc(NC(=O)c4cc(C(F)(F)F)cc(C(F)(F)F)c4)sc3c2)ccn1`, the CC50 is reported as greater than 100 µM.

System: not listed separately
Assay: Antiproliferative activity against human SF539 cells assessed as cell growth at 10^-7 M after 48 hrs by sulforhodamine B assay
Format: functional
Conditions: SF-539, 48 h, read-out: Activity
`CNC(=O)c1cc(Oc2ccc3nc(NC(=O)c4cc(C(F)(F)F)cc(C(F)(F)F)c4)sc3c2)ccn1` showed a growth at 0.1 µM of 91%.

System: ACHN
Assay: Antiproliferative activity against human ACHN cells assessed as cell growth at 10^-4 M after 48 hrs by sulforhodamine B assay
Format: functional
Conditions: read-out: Activity
`CNC(=O)c1cc(Oc2ccc3nc(NC(=O)c4cc(C(F)(F)F)cc(C(F)(F)F)c4)sc3c2)ccn1` showed a growth at 100 µM of -82%.

System: not listed separately
Assay: Antiproliferative activity against human TK10 cells assessed as cell growth at 10^-6 M after 48 hrs by sulforhodamine B assay
Format: functional
Conditions: TK-10, 48 h, read-out: Activity
With `CNC(=O)c1cc(Oc2ccc3nc(NC(=O)c4cc(C(F)(F)F)cc(C(F)(F)F)c4)sc3c2)ccn1` the growth at 1 µM was 97%.

System: not listed separately
Assay: Antiproliferative activity against human UACC62 cells assessed as cell growth at 10^-8 M after 48 hrs by sulforhodamine B assay
Format: functional
Conditions: UACC-62, 48 h, read-out: Activity
Compound `CNC(=O)c1cc(Oc2ccc3nc(NC(=O)c4cc(C(F)(F)F)cc(C(F)(F)F)c4)sc3c2)ccn1` has a growth at 0.01 µM of 89%.

System: NCI-H460
Assay: Antiproliferative activity against human NCI-H460 cells assessed as cell growth at 10^-6 M after 48 hrs by sulforhodamine B assay
Format: functional
Conditions: NCI-H460, 48 h, read-out: Activity
In the case of `CNC(=O)c1cc(Oc2ccc3nc(NC(=O)c4cc(C(F)(F)F)cc(C(F)(F)F)c4)sc3c2)ccn1`, the growth at 1 µM is reported as 101%.

System: 786-0
Assay: Antiproliferative activity against human 786-0 cells assessed as cell growth at 10^-8 M after 48 hrs by sulforhodamine B assay
Format: functional
Conditions: 786-0, 48 h, read-out: Activity
`CNC(=O)c1cc(Oc2ccc3nc(NC(=O)c4cc(C(F)(F)F)cc(C(F)(F)F)c4)sc3c2)ccn1` showed a growth at 0.01 µM of 98%.

System: not listed separately
Assay: Antiproliferative activity against human OVCAR4 cells assessed as cell growth at 10^-7 M after 48 hrs by sulforhodamine B assay
Format: functional
Conditions: OVCAR-4, 48 h, read-out: Activity
`CNC(=O)c1cc(Oc2ccc3nc(NC(=O)c4cc(C(F)(F)F)cc(C(F)(F)F)c4)sc3c2)ccn1` gave a growth at 0.1 µM of 92%.

System: not listed separately
Assay: Antiproliferative activity against human SKOV3 cells assessed as cell growth at 10^-4 M after 48 hrs by sulforhodamine B assay
Format: functional
Conditions: SK-OV-3, 48 h, read-out: Activity
Compound `CNC(=O)c1cc(Oc2ccc3nc(NC(=O)c4cc(C(F)(F)F)cc(C(F)(F)F)c4)sc3c2)ccn1` has a growth at 100 µM of -56%.

System: HT-29
Assay: Antiproliferative activity against human HT-29 cells assessed as cell growth at 10^-6 M after 48 hrs by sulforhodamine B assay
Format: functional
Conditions: HT-29, 48 h, read-out: Activity
`CNC(=O)c1cc(Oc2ccc3nc(NC(=O)c4cc(C(F)(F)F)cc(C(F)(F)F)c4)sc3c2)ccn1` gave a growth at 1 µM of 100%.

System: SK-MEL-2
Assay: Antiproliferative activity against human SK-MEL-2 cells assessed as cell growth at 10^-8 M after 48 hrs by sulforhodamine B assay
Format: functional
Conditions: SK-MEL-2, 48 h, read-out: Activity
Work on `CNC(=O)c1cc(Oc2ccc3nc(NC(=O)c4cc(C(F)(F)F)cc(C(F)(F)F)c4)sc3c2)ccn1` yielded a growth at 0.01 µM of 88%.
